For 14 molecules, TGI results are on record in PubChem BioAssay (NCI).

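Dose response: 5 concentrations. Exposure: 48 h. Format: 96-well plates. Endpoint: linear interpolation; highest concentration if not reached. TGI denotes the concentration required for complete inhibition of growth.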

Holding throughout (test): DTP human tumour cell line panel, 48 h
Experiment [1] has as its system SNB-78 CNS.
In experiment [2] the test system is HOP-18 NSCLC.
In experiment [3] the test system is DMS 273 small cell lung.
Experiment [4] has as its system OVCAR-5 ovarian.
For experiment [5], the system named is NCI-H23 lung.
Experiment [6] concerns DMS 114 small cell lung.
The test system of experiment [7] is A498 renal.
Experiment [8] deals with LXFL 529 NSCLC.
Experiment [9] has as its system SK-MEL-2 melanoma.
Experiment [10] deals with DLD-1 colon.
Experiment [11] has as its system SNB-75 CNS.
Experiment [12] has as its system HS 578T breast.

Consider `CC1=C2C(c3ccccc3)(c3ccccc3)C3C=CC2(C=N3)N(C(=O)NC2CCCCC2)C1=O` (centres undefined), for which the TGI in experiment [1] turned out to be 31.9 µM; in experiment [2], 34.3 µM; in [3], 33.2 µM; in experiment [4] it was 31.5 µM; in experiment [5], 32.5 µM; in experiment [6] it was 32.5 µM. Also, the results for the TGI in experiment [7] and in experiment [8] were 31.6 µM and 30.1 µM, respectively.
On to `CCC1(CN(C)C)CC/C(=C\c2ccc3c(c2)OCO3)C1=O` (centres undefined), for which the TGI in experiment [9], in [1], in [2], in experiment [3], in experiment [4] and in [5] was greater than 100 µM in each case. For the same molecule, the TGI in [10], in experiment [11], in experiment [7] and in [8] was greater than 100 µM throughout.
As to `COc1ccc(NC(=O)C(=O)C2NC(=S)NC2=O)c(OC)c1` (centres undefined), the TGI in [9], in [1], in experiment [3], in experiment [5], in [6] and in experiment [10] was greater than 100 µM in each case. For the same molecule, the TGI in experiment [11], in experiment [7] and in experiment [8] was greater than 100 µM each time.
As to `C/C(=N\Nc1ccc([N+](=O)[O-])cc1)C(=O)N(C)Nc1ccccc1`, the TGI in experiment [9], in experiment [2], in [3], in [5], in [6] and in experiment [10] was greater than 100 µM each time. In addition, the TGI in experiment [11], in [7] and in [8] was greater than 100 µM each time.
Take `Cc1ccc(NC(=O)C(=O)Cc2nc3ccccc3o2)c(C)c1`: the TGI in experiment [9], in experiment [1], in [3], in experiment [4], in experiment [5] and in [6] was greater than 100 µM each time. The TGI in experiment [10], in experiment [11] and in experiment [8] was greater than 100 µM each time.
`CCN(CC)CCCNC(=O)Cc1ccccc1Nc1c(Cl)cccc1Cl`: the TGI worked out at 32.8 µM in experiment [1]; 28.1 µM in experiment [3]; 23.5 µM in experiment [4]; 32.2 µM in experiment [5]; 27.6 µM in experiment [6]; 28.3 µM in [10]. Further, the figures for the TGI in experiment [11] and in [8] were 21.8 µM and 21.3 µM, respectively.
As for `COc1cc(Br)c(CC2=NCCc3cc(OC)c(OC)cc32)cc1OC`, the TGI in experiment [9] was greater than 100 µM; in experiment [2], greater than 100 µM; in experiment [3], 51.3 µM; in experiment [4], greater than 100 µM; in experiment [5], greater than 100 µM; in experiment [6], 68.1 µM. Also, the TGI was greater than 100 µM in experiment [10], greater than 100 µM in [11], 76.3 µM in [7] and greater than 100 µM in experiment [8].
Consider `CCOC(=O)C(C[Si](C)(C)C)P(=O)(OCC)OCC` (centres undefined), for which the TGI in experiment [1], in [3], in experiment [4], in [5], in experiment [6] and in experiment [10] was greater than 100 µM each time. Besides, the TGI in experiment [11] and in experiment [8] was greater than 100 µM in each case.
Regarding `O=[N+]([O-])c1ccccc1C1N2CCCCC2[C@@H]2c3[nH]c4ccccc4c3CCN12` (some centres undefined), the TGI in experiment [9] is 26.5 µM; in experiment [1] it was 32.2 µM; in [2], greater than 100 µM; in experiment [3] it was 23.4 µM; in [4], 40 µM; in experiment [5], 27.5 µM. Further, the TGI was 14.7 µM in experiment [6], 36.3 µM in experiment [10], 25.2 µM in experiment [7] and 22.8 µM in [8].
For the molecule `O=C1C(c2ccccc2)=C(c2ccccc2)C(c2ccc(CCCCCCc3ccc(C4=C(c5ccccc5)C(=O)C(c5ccccc5)=C4c4ccccc4)cc3)cc2)=C1c1ccccc1`, the TGI in [9], in [1], in [3], in [4], in experiment [5] and in experiment [6] was greater than 100 µM in each case. In addition, the TGI in experiment [10] and in [8] was greater than 100 µM throughout.
Take `CC[C@@H]1OC2(C)CC(S(=O)(=O)c3ccccc3)CC1O2` (some centres undefined): the concentration for total growth inhibition (TGI) in experiment [9], in [1], in [2], in [3], in experiment [4] and in [5] was greater than 100 µM in each case. For the same molecule, the concentration for total growth inhibition (TGI) in experiment [6], in experiment [10], in experiment [11] and in experiment [8] was greater than 100 µM throughout.
As to `COc1ccc(C2S/C(=C\c3ccc(OC)cc3OC)C(=O)N2NC(=O)Cc2ccccc2)cc1` (centres undefined), the TGI in experiment [9], in [2], in [3], in experiment [4], in [5] and in experiment [6] was greater than 100 µM in each case. Further, the TGI in experiment [10], in experiment [11], in experiment [7] and in experiment [8] was greater than 100 µM throughout.
Consider `Cn1c(O)c(C(=O)Nc2ccc([N+](=O)[O-])cc2)c(=O)n(C)c1=S`, for which the TGI in experiment [9] was 5.53 µM; in experiment [2], 6.85 µM; in experiment [4], 16.4 µM; in [5] it was 3.26 µM; in [6], 4.81 µM; in [10] it was greater than 35.5 µM. Besides, the TGI was 6.37 µM in [11], 2.17 µM in experiment [7], greater than 50.1 µM in [8] and 5.85 µM in experiment [12].
For `CCCCCCCCCC(=O)CC(=O)c1c(O)cccc1O`, the TGI was 67 µM in [9]; greater than 100 µM in experiment [1]; 93.6 µM in experiment [2]; 39.1 µM in experiment [3]; 64 µM in experiment [4]; greater than 100 µM in experiment [5]. Moreover, the TGI in experiment [6] is 89.5 µM; in experiment [10], greater than 100 µM; in experiment [11], 99.7 µM; in experiment [8], greater than 100 µM.

In general, TGI refers to the concentration at which net growth stops. Read a high TGI as lower sensitivity of the cells.
